According to patent EP0956287B1, “3-ARYL-2-(1-SUBSTITUTED-4-PIPERIDINYL)-1(1-DI)OXO-3H-BENZO D]-ISOTHIAZOLE DERIVATIVES, THEIR PREPARATION AND THEIR USE AS MODULATORS OF NEUROTRANSMITTER FUNCTION” (Aventis Pharmaceuticals Inc., priority 1996, dated 1998):
Counter-ions that a name gives are not always drawn.

What was measured:
Type in all cases: biochemical
[1] = target: T1, serotonin (5HT) uptake (Rattus norvegicus, UniProt P31652); assay: Inhibition of [3H]-serotonin uptake in rat whole brain synaptosomes; settings: [3H]-5 HT 50 nM
T1 construct: Whole brain minus cerebella is weighed and homogenized in 9 volumes of ice-cold 0.32 M sucrose; from tissue; host or cells: rat whole brain minus cerebella, crude synaptosomal supernatant (S1)
T1 sequence (P31652 whole entry): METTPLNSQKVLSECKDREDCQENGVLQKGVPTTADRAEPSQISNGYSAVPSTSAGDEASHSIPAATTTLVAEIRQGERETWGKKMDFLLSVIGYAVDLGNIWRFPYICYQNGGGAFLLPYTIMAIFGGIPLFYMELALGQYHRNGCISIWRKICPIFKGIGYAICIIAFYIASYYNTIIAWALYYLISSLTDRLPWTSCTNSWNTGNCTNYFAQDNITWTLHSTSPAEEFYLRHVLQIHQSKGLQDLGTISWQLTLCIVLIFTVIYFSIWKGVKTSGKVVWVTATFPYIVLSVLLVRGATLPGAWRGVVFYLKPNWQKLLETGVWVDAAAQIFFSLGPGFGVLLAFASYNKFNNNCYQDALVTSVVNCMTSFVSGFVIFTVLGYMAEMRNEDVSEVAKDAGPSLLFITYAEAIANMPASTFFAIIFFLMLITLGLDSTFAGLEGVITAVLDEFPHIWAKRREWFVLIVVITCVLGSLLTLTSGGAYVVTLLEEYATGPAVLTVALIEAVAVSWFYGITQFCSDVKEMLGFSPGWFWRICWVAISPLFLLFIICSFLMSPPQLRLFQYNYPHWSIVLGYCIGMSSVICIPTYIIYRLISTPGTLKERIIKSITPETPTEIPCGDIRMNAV
Experimental: Inhibition of [^3H]-Serotonin Uptake in Rat Whole Brain Synaptosomes
This assay is used a biochemical screen for compounds which block serotonin (5 HT) uptake, which may be useful as antidepressants and for the treatment of personality disorders such as obsessive compulsive disorder.
(§1) A. Animals: Male CR Wistar rats (100-125 g).
(§2) 1. Krebs-Henseleit Bicarbonate Buffer, pH 7.4 (KHBB): Make a 1 liter batch, containing the following salts.
Aerate for 60 minutes with 95% O2/5% CO2, check pH (7.4±0.1). 2. 0.32 M Sucrose: 21.9 g of sucrose, bring to 200 ml. 3. Serotonin creatinine SO4 is obtained from Sigma Chemical Co. A 0.1 mM stock solution is made up in 0.01N HCl. This is used to dilute the specific activity of radiolabeled 5 HT. 4. 5-[1,2-^3H(N)]-Hydroxytryptamine creatinine sulfate (Serotonin), specific activity 20-30 Ci/mmol is obtained from New England Nuclear. The final desired concentration of ^3H-5 HT in the assay is 50 nM. The dilution factor is 0.8. Therefore, the KHBB is made up to contain 62.5 nM [^3H]--5 HT. Add to 100 ml of KHBB.
5. For most assays, a 1 mM solution of the test compound is made up in suitable solvent and serially diluted such that the final concentration in the assay ranges from 2 x 10^-8 to 2 x 10^-5 M. Seven concentrations are used for each assay. Higher or lower concentrations may be used depending on the potency of the compound.
Male Wistar rats are decapitated and the brain rapidly removed. Whole brain minus cerebella is weighed and homogenized in 9 volumes of ice-cold 0.32 M sucrose using a Potter-Elvejhem homogenizer. Homogenization should be done with 4-5 up and down strokes at medium speeds to minimize synaptosome lysis. The homogenate is centrifuged at 1000 g for 10 minutes at 0° - 4°C. The supernatant (S1) is decanted and is used for uptake experiments.
• 800 µl KHBB + [^3H]-5 HT. • 20 µl Vehicle or appropriate drug concentration • 200 µl Tissue suspension
(§3) Tubes are incubated at 37°C under a 95% O2/5% CO2 atmosphere for 5 minutes. For each assay, 3 tubes are incubated with 20 µl of vehicle at 0°C in an ice bath. After incubation all tubes are immediately centrifuged at 4000 g for 10 minutes. The supernatant fluid is aspirated and the pellets dissolved by adding 1 ml of solubilizer (Triton® X-100 + 50% EtOH, 1:4 v/v). The tubes are vigorously shaken, decanted into scintillation vials, and counted in 10 ml of Liquicint® scintillation counting cocktail. Active uptake is the difference between cpm at 37°C and 0°C. The percent inhibition at each drug concentration is the mean of three determinations. IC50 values are derived from log-probit analysis.

[2] = target: T2, dopamine (DA) uptake (Rattus norvegicus, UniProt P23977); assay: Inhibition of 3H-dopamine uptake in rat striatal synaptosomes; settings: head says whole brain synaptosomes, method uses striatal synaptosomes, 3H-DA 50 nM
T2 construct: Corpora striata are rapidly removed, weighed and homogenized in 9 volumes of ice-cold 0.32 M sucrose; from tissue; host or cells: rat corpora striata, crude synaptosomal supernatant (S1)
T2 sequence (P23977 whole entry): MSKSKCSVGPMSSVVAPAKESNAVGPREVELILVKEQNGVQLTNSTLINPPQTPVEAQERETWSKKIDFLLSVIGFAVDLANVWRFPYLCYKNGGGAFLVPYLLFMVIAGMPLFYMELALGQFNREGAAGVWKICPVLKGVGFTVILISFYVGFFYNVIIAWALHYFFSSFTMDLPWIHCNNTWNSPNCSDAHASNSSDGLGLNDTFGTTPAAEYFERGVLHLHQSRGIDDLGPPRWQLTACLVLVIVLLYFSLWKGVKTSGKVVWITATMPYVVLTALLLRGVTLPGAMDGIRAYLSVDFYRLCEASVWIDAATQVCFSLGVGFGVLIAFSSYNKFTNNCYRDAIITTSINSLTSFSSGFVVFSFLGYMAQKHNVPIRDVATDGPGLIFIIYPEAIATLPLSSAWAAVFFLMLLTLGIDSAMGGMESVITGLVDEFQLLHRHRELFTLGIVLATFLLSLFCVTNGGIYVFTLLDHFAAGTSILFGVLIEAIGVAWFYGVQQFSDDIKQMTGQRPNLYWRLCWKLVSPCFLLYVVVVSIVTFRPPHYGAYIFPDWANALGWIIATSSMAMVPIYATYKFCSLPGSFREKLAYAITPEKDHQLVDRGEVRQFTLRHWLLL
Experimental: Inhibition of ^3H-Dopamine Uptake in Rat Striatal Synaptosomes
this assay is used to show differential drug effects on dopamine uptake versus nerepppinephrine uptake and to identify therapeutic agents for diseases where the potentiation of dopaminergic activity may be helpful (e.g. Parkinson's Disease).
as §1
1. Krebs-Henseleit Bicarbonate Buffer, pH 7.4 (KHBB): Make a 1 liter batch containing the following salts:
Aerate for 60 minutes with 95% O2/5% CO2, check pH (7.4±0.1). 2. 0.32 M Sucrose: 21.9 g of sucrose, bring to 200 ml. 3. Dopamine HCl is obtained from Sigma Chemical Co. A 0.1 mM stock solution is made up in 0.01N HCI. This is used to dilute the specific activity of radiolabeled 5 HT. 4. 3,4-[8-^3H(N)]-Dihydroxyphenylethylamine (Dopamine), specific activity 4-34 Ci/mmol is obtained from New England Nuclear. The final desired concentration of ^3H-DA in the assay is 50 nM. The dilution factor is 0.9. Therefore, the KHBB is made up to contain 55.5 nM [^3H]-5 DA. Add to 100 ml of KHBB.
5. For most assays, a 1mM stock solution of the test compound is made up in a suitable solvent and serially diluted such that the final concentration in the assay ranges from 2 x 10^-8 to 2 x 10^-5 M. Seven concentrations are used for each assay. Higher or lower concentrations may be used depending on the potency of the compound.
Male Wistar rats are decapitated and the brain rapidly removed. Corpora striata are rapidly removed, weighed and homogenized in 9 volumes of ice-cold 0.32 M sucrose using a Potter-Elvejhem homogenizer. Homogenization should be done with 4-5 up and down strokes at medium speeds to minimize synaptosome lysis. The homogenate is centrifuged at 1000 g for 10 minutes at 0°- 4°C. The supernatant (S1) is decanted and is used for uptake experiments.
• 900 µl KHBB + [^3H]-DA. • 20 µl Vehicle or appropriate drug concentration • 100 µl Tissue suspension
as §3, with “Liquiscint®” for “Liquicint®”

[3] = target: T3, norepinephrine (NE) uptake (Rattus norvegicus, UniProt Q63380); assay: Inhibition of [3H]-norepinephrine uptake in rat whole brain or hypothalamic synaptosomes; settings: [3H]-NE 50 nM
T3 construct: Either whole brain minus cerebella or hypothalamus is weighed and homogenized in 9 volumes of ice-cold 0.32 M sucrose; from tissue; host or cells: rat whole brain minus cerebella or hypothalamus, crude synaptosomal supernatant (S1)
T3 sequence (Q63380 1-617): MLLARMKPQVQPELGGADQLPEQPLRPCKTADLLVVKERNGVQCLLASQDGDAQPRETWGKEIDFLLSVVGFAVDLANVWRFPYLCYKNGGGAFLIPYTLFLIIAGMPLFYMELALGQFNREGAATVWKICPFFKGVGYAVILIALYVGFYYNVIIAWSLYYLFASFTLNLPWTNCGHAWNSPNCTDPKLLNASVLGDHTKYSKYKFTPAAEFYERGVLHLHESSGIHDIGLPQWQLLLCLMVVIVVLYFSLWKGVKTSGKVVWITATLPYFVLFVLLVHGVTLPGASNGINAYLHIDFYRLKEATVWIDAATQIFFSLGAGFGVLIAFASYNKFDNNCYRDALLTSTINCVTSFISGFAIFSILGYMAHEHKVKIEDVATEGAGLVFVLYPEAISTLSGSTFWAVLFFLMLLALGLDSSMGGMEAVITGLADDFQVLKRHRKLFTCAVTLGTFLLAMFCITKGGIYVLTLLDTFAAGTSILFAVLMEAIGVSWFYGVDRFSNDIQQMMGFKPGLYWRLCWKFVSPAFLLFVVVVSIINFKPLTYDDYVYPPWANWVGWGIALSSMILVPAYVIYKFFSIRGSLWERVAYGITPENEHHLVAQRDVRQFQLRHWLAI
Experimental: Inhibition of [^3H]-Norepinephrine Uptake in Rat Whole Brain or Hypothalamic Synaptosomes
This assay is used as a biochemical screen for potential antidepressants which block norepinephrine uptake.
as §1, §2
Aerate for 60 minutes with 95% O2/5% CO2, check pH (7.4±0.1); then add bovine serum albumin (Sigma cat#A-7906) 1 mg/ml. 2. 0.32M Sucrose: 21.9 g of sucrose, bring to 200 ml. 3. L(-)-Norepinephrine bitartrate is obtained from Sigma Chemical Co. A 0.1 mM stock solution is made up in 0.01 N HCl. This is used to dilute the specific activity of theradiolabeled NE. 4. Levo-[Ring-2,5,6-^3H]-Norepinephrine (40-50 Ci/mmol) is obtained from New England Nuclear. The final desired concentration of [^3H]-NE in the assay is 50 nM. The dilution factor is 0.8. Therefore, the KHBB is made up to contain 62.5 nM [^3H]-NE. Add to 100 ml of KHBB.
5. For most assays, a 1 mM stock solution of the test compound is made up in a suitable solvent and serially diluted such that the final concentration in the assay ranges from 2 x 10^-8 to 2 x 10^-5 M. Seven concentrations are used for each assay. Higher or lower concentrations may be used depending on the potency of the compound.
Male Wistar rats are decapitated and the brain rapidly removed. Either whole brain minus cerebella or hypothalamus is weighed and homogenized in 9 volumes of ice-cold 0.32 M sucrose using a Potter-Elvejhem homogenizer. Homogenization should be done with 4-5 up and down strokes at medium speeds to minimize synaptosome lysis. TH homogenate is centrifuged at 1000 g for 10 minutes at 0° 4°C. The supernatant (S1) is decanted and is used for uptake experiments.
• 800 µl KHBB [^3H]-NE • 20 µl Vehicle or appropriate drug concentration • 200 µl Tissue suspension
Tubes are incubated at 37°C, under a 95% O2/5% CO2 atmosphere for 5 minutes. For each assay, 3 tubes are incubated with 20 µl of vehicle at 0°C in a ice bath. After incubation all tubes are immediately centrifuged at 4000 g for 10 minutes. The supernatant fluid is aspirated and the pellets dissolved by adding 1 ml of solubilizaer (Triton® X-100 + 50% EtOH, 1:4 v/v). The tubes are vigorously shaken decanted into scientillation vials, and counted in 10 ml of Liquiscint® scintillation countering cocktail. Active uptake is the difference between cpm at 37°C. and 0°C. The percent inhibition at each drug concentration is the mean of three determinations IC50 values are derived from log-probit analysis.

Row | Structure (SMILES) | Whole brain synaptosomes % inhibition at 3.16 µm 5HT [1] [%] | Whole brain synaptosomes % inhibition at 3.16 µm DA [2] [%] | Whole brain synaptosomes % inhibition at 3.16 µm NE [3] [%]
1 | O=C(O)/C=C\C(=O)O.O=S1(=O)c2ccccc2C(c2ccc(Cl)cc2)N1C1CCN(CCO)CC1 (stereo not drawn) [2-{4-[3-(4-Chlorophenyl)-1,1-dioxo-3H-benzo[d]isothiazol-2-yl]-piperidin-1-yl}-ethanol maleate] | 3.68 | 18.71 | 8.71
2 | COc1cc(C(C)=O)ccc1OCCCN1CCC(N2C(c3ccc(Cl)cc3)c3ccccc3S2(=O)=O)CC1 (stereo not drawn) [1-[4-(3-{4-[3-(4-Chlorophenyl)-1,1-dioxo-3H-benzo[d]isothiazol-2-yl]-1-piperidin-1-yl}-propoxy)-3-methoxyphenyl]-ethanone maleate] | 48.78 | 67.94 | 55.23
3 | O=C(O)/C=C\C(=O)O.O=C1c2ccccc2C(=O)N1CCCN1CCC(N2C(c3ccc(Cl)cc3)c3ccccc3S2(=O)=O)CC1 (stereo not drawn) [2-(3-{4-[3-(4-Chlorophenyl)-1,1-dioxo-3H-benzo[d]isothiazol-2-yl]piperidin-1-yl}propyl)-isoindol-1,3-dione maleate] | 29.02 | 57.36 | 28.37
4 | Cl.O=S1(=O)c2ccccc2C(c2ccc(F)cc2)N1C1CCNCC1 (stereo not drawn) [3-(4-Fluorophenyl)-2-(4-piperidinyl)-2,3-dihydrobenzo[d]isothiazole-1,1-dioxide hydrochloride] | 37.92 | 30.34 | 25.02
